Assay results published in patent US20050220906A1, “Pharmaceutical composition for treating rheumatism and the preparation thereof” (priority 2002, published 2005).
Values belong to the compound of their own block, whether it stands above or below them.

Columns and labels:
[1] = Organ index of AA rats (prevention experiment); assay type: in vivo, SD rats
Procedure: (§1) 72 isogenous SD rats of the same batch, half male and half female, 180˜220 g weight, were divided randomly into 6 groups. Each group has 12 rats. Every 6 rats lived in a cage. The perimeter of the double anklejoints and the feet of the rat were measured accurately and recorded as the normal value. All the rats were drenched by the same volume of the invented medicine on the correspondent concentration or the solution of the Xihuangqi by the gastic injection. 1 hour later, all the rats were injected with 0.1 ml Freund's complete adjuvant (FCA) under the skin of the left postpedes. In the next 30 days, all the rats were drenched with the correspondent medicine once a day on the same dosage. And in these days, the rats were measured of the perimeters of the double anklejoints and the feet once a day. In this experiment, the swelling degree (Δcm) equaled to the difference value of the perimeters measured after the FCA injection and before the FCA injection. (See the result in table 1.1 and 1.2) At the end of the experiment, the major organs of the rats were weighted. (See the table 1.3, 1.4)

[2] = Body weight of AA rats (prevention experiment); assay type: in vivo, SD rats; conditions: 0.01 g/kg
Procedure: as §1

rat AA model = test: Preventing effect on adjuvant arthritis (AA): swelling degree; assay type: in vivo, SD rats; conditions: 0.01 g/kg
Procedure: as §1

[3] = Organ index of AA rats (Table 1.7); assay type: in vivo, SD rats; conditions: 0.01 g/kg
Source text: (§2) 50 male SD rats were divided into 5 groups at random. The model building was same to the prevention experiment, but the correspondent medicines were drenched 13 days after the injection of the FCA. The medicines were drenched once a day for 2 weeks. The swelling degree (Δcm) was the difference of the perimeters between the value of first administration day and the other days.

AA rats = test: Therapeutic effect on AA: swelling degree; assay type: in vivo, SD rats; conditions: 0.01 g/kg
Source text: as §2

capillary permeability = test: Capillary permeability induced by acetic acid in the abdominal cavity; assay type: in vivo, NIH mice; conditions: 0.15 g/kg, qd × 3
Procedure: 90 NIH mice, 18˜22 g weight, half male and half female, were divided into 9 groups and drenched with the correspondent medicine solutions of the same volumn. The medicines were drenched once a day for 3 days or just 1 time. 1 hour after the last administration, each mouse were injected with 0.7% HAC-NS solution into the abdominal cavity. At the same time, each mouse was injected with the 0.5% Evans blue-NS solution into the vessel on the dose of 0.1 ml/10 g. 30 min later; all the mice were killed by cervical disjoint. The abdominal cavity was opened and washed by the 5 ml NS. The NS used was collected and adjusted to 8 ml by the pure NS as the sample. The samples were centrifuged at 3000 rpm to get the supernate. The supernate was measured the OD at the wavelength at 590 nm. (See the result in table 8)

[4] = tested on: croton oil-induced swelling; test: Croton oil-induced swelling of the ears; assay type: in vivo, NIH mice; conditions: 0.003 g/kg, 3 days
Procedure: 60 NIH mice with weight of 18˜22 g, male and female accounting for half and half, were divided into 6 groups, which were drenched with the same volume and different dosage of drug liquid or tragacanth liquid, once a day, lasting 3 days. 1 hour after the final administration, 2% croton oil mixure of 0.02 ml was embrocated uniformly on the both sides of left ears of mice, and after 4 hours, the mice were snapped off its cervical vertebra and put to death. The left and right ears were cut down, then inflammatory and control ears were weighted by certain means. Difference of weight between left and right ears was the swelling extent of ears, results showing in table 11.

macrophage = test: CRBC phagocytosis of abdominal macrophages; assay type: in vivo, mouse; conditions: 0.005 g/kg, 7 days
Procedure: 50 NIH mice, 18˜22 g weight, half male and half female, were divided into 5 groups and drenched with the correspondent medicine solutions on the same volumn. The administration was once a day for 7 days. 1 hour after the last administration, all the mice were injected with 0.2 ml 10% chick RBC into the abdominal carvity. 4 hours later, all the mice were killed and sampled the fluid in the abdomincal carvity. The liquor samples were dropped on the glass and counted the number of the macrophage which had phagocytized the CRBC and the number of the CRBC in one macrophage. (See the result in table 7)

[5] = tested on: pleuritis induced by the carrageenan; test: Carrageenan pleuritis: exudation and inflammatory cell aggregation; assay type: in vivo, mice; conditions: 0.05 g/kg
Procedure: The mice were divided into 5 groups at random and injected with 0.5% Evans blue NS solution into the caudal vein on the dosage of 0.1 ml/10 g. Then the mice were injected with the 0.03 ml 1% carrageenan in the right chest cavity with the special syring niddle. 4 hours and 32 hours after the injection, the correspondent mice were killed and opend the obdominal cavity to expose the diaphragm. 2 ml of the lotion were injected to the chest cavity by 2 times with a 1 ml injector. The lotion was collected and saved in a test tube. 20 μl of the lotion collected was added into the 400 μl WBC dilution. The WBC in the mixed dilution was counted under the microscope. The rest of the lotion was centrifuged at 3000 rpm for 10 min. The supernate of the lotion was measured the OD at the wavelength of 600 nm. The OD value of the sample should be corrected with the correspondent OD value of the pure lotion. (See the result in table 9)

DTH caused by DNFB = test: Delayed hypersensitivity (DTH) caused by DNFB in the mouse ear; assay type: in vivo, NIH mouse; conditions: 0.003 g/kg, administration day 0˜5
Procedure: Each mouse was led to hypersensitivity reaction by using the 1% DNFB acetone solution on the dosage of 0.025 ml at the right place of the abdomen where the pilus had been cut yet. Using the same solution on the same place was to enhance the hypersensitivity reaction on the third day. On the fifth day, all the mice were smeared with the 1% DNFB edible oil solution at the mice's right ears on the dosage of 0.01 ml each. 24 hours later, all the mice were killed. The mouse's 2 ears were weighted by the torsion balance and the difference of the 2 ears was recorded as the DTH degree caused by the DNFB. The experiment was carried out on the different immune and administration processes.
The immune and administration processes is as following: [drawing 1]

PCA in rat = test: Passive cutis anaphylactic reaction (PCA); assay type: in vivo; conditions: 0.1 g/kg
Procedure: The rats were injected with the egg albumn at 10 mg/kg in the muscle. At the same time, all the rats were injected with 2×10^10 (0.2 ml) bordetella pertussis in the abdominal cavity for sensitization. 2 weeks later, all the rats were killed to sample the blood. All the blood samples were separated for preparing the serum.
60 rats, 150˜200 g, half male and half female, were divided into 6 groups at random. In the light narcosis condition induced by aether, each rat was cut the fleece in the back and injected with the 2 concentrations of anti-egg-album serum 0.1 ml under the skin at the fairless place. The serums were diluted on the rates of 1:5(d1) and 1:10(d2) before the experiment. 48 hours later, all the rats were attacked by intravenous injecting the 0.5% evans blue normal saline solution 1 ml which containing 1 mg egg albumin. 20 minutes later, the rats were killed by decapitation. The rats' back skin were dissected and turned over. According to the dark and light and area of the blue stains exudated from the vessels, all the rats were evaluated by several people. The skin stained by the evens blue were scissored and soaked in 5 ml 0.1% sodium sulfate acetone (7:3) solution for 48 hours. Then it was centrifugated to separate the supernatant liquor. The supernates were measured the optical density at the wavelength 590 nm to calculate the degree of the PCA reaction and the inhibiting percent.

atrophy of the thymus and adrenal gland ([1]; AA rats, tables 1.4 and 1.7): atrophied
SMILES: C[C@]12C=CC(=O)C=C1CC[C@@H]1[C@@H]2C(=O)C[C@@]2(C)[C@H]1CC[C@]2(O)C(=O)CO [prednisone]
Organ index [(organ weight/body weight)/100] Liver ([1]; 0.01 g/kg): 3.04 ± 0.20
Organ index [(organ weight/body weight)/100] Spleen ([1]; 0.01 g/kg): 0.32 ± 0.08
Organ index [(organ weight/body weight)/100] Thymus ([1]; 0.01 g/kg): 0.050 ± 0.060
Organ index [(organ weight/body weight)/100] adrenal gland ([1]; 0.01 g/kg): 0.020 ± 0.004
BW at 1 month later [2]: 244 ± 31 g
BW change [2]: -21 g
Initiative BW [2]: 264 ± 55 g
Swelling degree, left anklejoint and foot (rat AA model; 1 d): 0.64 ± 0.14 Δcm
Swelling degree, left anklejoint and foot (rat AA model; 2 d): 0.64 ± 0.16 Δcm
Swelling degree, left anklejoint and foot (Table 1.2) (rat AA model; 2 d): 0.20 ± 0.06 Δcm
Swelling degree, left anklejoint and foot (rat AA model; 3 d): 0.50 ± 0.26 Δcm
Swelling degree, left anklejoint and foot (rat AA model; 9 d): 0.46 ± 0.25 Δcm
Swelling degree, left anklejoint and foot (Table 1.2) (rat AA model; 9 d): 0.08 ± 0.08 Δcm
Swelling degree, left anklejoint and foot (rat AA model; 12 d): 0.72 ± 0.46 Δcm
Swelling degree, left anklejoint and foot (Table 1.2) (rat AA model; 12 d): 0.21 ± 0.16 Δcm
Swelling degree, left anklejoint and foot (rat AA model; 14 d): 0.87 ± 0.46 Δcm
Swelling degree, left anklejoint and foot (Table 1.2) (rat AA model; 14 d): 0.44 ± 0.43 Δcm
Swelling degree, left anklejoint and foot (rat AA model; 16 d): 1.28 ± 0.69 Δcm
Swelling degree, left anklejoint and foot (Table 1.2) (rat AA model; 16 d): 0.99 ± 0.63 Δcm
Swelling degree, left anklejoint and foot (Table 1.2) (rat AA model; 18 d): 0.84 ± 0.74 Δcm
Swelling degree, left anklejoint and foot (rat AA model; 20 d): 1.03 ± 0.67 Δcm
Swelling degree, left anklejoint and foot (Table 1.2) (rat AA model; 20 d): 0.82 ± 0.72 Δcm
Swelling degree, left anklejoint and foot (rat AA model; 22 d): 1.05 ± 0.69 Δcm
Swelling degree, left anklejoint and foot (Table 1.2) (rat AA model; 22 d): 0.79 ± 0.74 Δcm
Swelling degree, left anklejoint and foot (rat AA model; 24 d): 0.90 ± 0.64 Δcm
Swelling degree, left anklejoint and foot (Table 1.2) (rat AA model; 24 d): 0.75 ± 0.67 Δcm
Swelling degree, left anklejoint and foot (rat AA model; 26 d): 0.86 ± 0.65 Δcm
Swelling degree, left anklejoint and foot (Table 1.2) (rat AA model; 26 d): 0.68 ± 0.64 Δcm
Swelling degree, left anklejoint and foot (rat AA model; 28 d): 0.85 ± 0.59 Δcm
Swelling degree, left anklejoint and foot (Table 1.2) (rat AA model; 28 d): 0.71 ± 0.67 Δcm
Organ index [(organ weight/body weight)/100] Liver [3]: 3.52 ± 0.35
Organ index [(organ weight/body weight)/100] Spleen [3]: 0.28 ± 0.047
Organ index [(organ weight/body weight)/100] Thymus [3]: 0.05 ± 0.011
Organ index [(organ weight/body weight)/100] adrenal gland [3]: 0.02 ± 0.0043
Swelling degree, left anklejoint and foot (AA rats; 1 d): 1.78 ± 0.51 Δcm
Swelling degree, left anklejoint and foot (AA rats; 2 d): 1.70 ± 0.51 Δcm
Swelling degree, right anklejoint and foot (AA rats; 2 d): 0.10 ± 0.13 Δcm
Swelling degree, left anklejoint and foot (AA rats; 4 d): 1.63 ± 0.50 Δcm
Swelling degree, right anklejoint and foot (AA rats; 4 d): 0.15 ± 0.28 Δcm
Swelling degree, left anklejoint and foot (AA rats; 6 d): 1.58 ± 0.50 Δcm
Swelling degree, right anklejoint and foot (AA rats; 6 d): 0.11 ± 0.25 Δcm
Swelling degree, left anklejoint and foot (AA rats; 8 d): 1.27 ± 0.46 Δcm
Swelling degree, right anklejoint and foot (AA rats; 8 d): −0.08 ± 0.34 Δcm
Swelling degree, left anklejoint and foot (AA rats; 10 d): 1.09 ± 0.54 Δcm
Swelling degree, right anklejoint and foot (AA rats; 10 d): −0.13 ± 0.28 Δcm
Swelling degree, left anklejoint and foot (AA rats; 12 d): 0.94 ± 0.50 Δcm
Swelling degree, right anklejoint and foot (AA rats; 12 d): −0.26 ± 0.36 Δcm
Swelling degree, left anklejoint and foot (AA rats; 14 d): 0.94 ± 0.42 Δcm
Swelling degree, right anklejoint and foot (AA rats; 14 d): −0.33 ± 0.39 Δcm

SMILES: C[C@@H]1C[C@H]2[C@@H]3CCC4=CC(=O)C=C[C@]4(C)[C@@]3(F)[C@@H](O)C[C@]2(C)[C@@]1(O)C(=O)CO [dexamethasone]
Leakage of the tincture (capillary permeability): 0.11 ± 0.07 OD
Degree of ears' swelling [4]: 14.13 ± 5.75 mg
inhibition at 3 mg/kg ([4]; Mus musculus, 72 h, read-out: inhibition rate): 68.2%
Percent of phagocytosis (macrophage): 8.33 ± 10.13 %
phagocytosis index (macrophage): 1.10 ± 0.18
Tincture exudation ([5]; 4 h): 0.085 ± 0.045 OD
Tincture exudation ([5]; 32 h): 0.063 ± 0.017 OD

SMILES: C[C@@H]1C[C@H]2[C@@H]3CCC4=CC(=O)C=C[C@]4(C)[C@@]3(F)[C@@H](O)C[C@]2(C)[C@@]1(O)C(=O)CO [cortisumman]
Percent of ear swelling (DTH caused by DNFB): 13.93 ± 4.41
Percent of inhibition (DTH caused by DNFB): 59.3%

SMILES: CN1CCC(=C2c3ccccc3CC(=O)c3sccc32)CC1 [Ketotifen]
PCA absorbancy (PCA in rat; serum d1 (1:5)): 0.033 ± 0.024
PCA value (PCA in rat; serum d1 (1:5)): 2.78 ± 1.64
PCA absorbancy (PCA in rat; serum d2 (1:10)): 0.027 ± 0.019
PCA value (PCA in rat; serum d2 (1:10)): 0.67 ± 1.41
